System: whole blood neutrophil CD11b expression (CXCL2-stimulated)
Test: Neutrophil CD11b Stimulation Following Oral Dosing to Rats
Format: in vivo, Lewis rats
Method: Rat whole blood, 3 ml, was drawn by cardiac puncture in a syringe containing 100 μl of 0.25 M EDTA (GIBCO, Grand Island, N.Y.). Rat CXCL2 (PeproTech, Rocky Hill, N.J.) stock was made by reconstitution in Kreb's/0.1% BSA (KBSA) at 10 μM. The stock was diluted to “11×” the maximum concentration used in DPBS (GIBCO) and serially diluted in KBSA/DPBS vehicle. […] The tubes were incubated for 30 minutes in a 37° C. bath, with gentle hand agitation every 10 minutes. The samples were then placed on ice for 10 minutes followed by addition of 10 μl of anti-rat-CD11b-FITC or FITC-labeled mouse IgG2a isotype control (both Antigenix America, Huntington Station, N.Y.) and incubated for 30 minutes on ice. FACS Lysing Solution (Becton Dickinson, San Jose, Calif.), 1 ml of 1×, was added with immediate vigorous vortexing, followed by additional vortex after the solution was added to the last sample. Samples were incubated for 10 minutes at room temperature and the leukocytes were pelleted at ˜300×g and washed with DPBS. Cells were resuspended in 650 μl of 1% paraformaldahyde. […] FL1 (green FITC fluorescence, directly relating to CD11b content) of this population was then measured as mean channel fluorescence by analysis with CellQuest software.

EC50 of the CXCL2 concentration response curve (CD11b expression) in treated rats (oral 10 mg/kg, Lewis rats, vehicle-treated rats 4.7 nM (1.9-7.4; 95% C.I.), treated 95% C.I. 10.0-14.7, p<0.001, n=6 per group): 12.3 nM
SMILES: Cc1ccc(S(=O)(=O)O)cc1.O=C(Nc1ccc(Cl)c(S(=O)(=O)N2CCNCC2)c1O)Nc1cccc(F)c1Cl [present compound, N-[4-chloro-2-hydroxy-3-(piperazine-1-sulfonyl)phenyl]-N′-(2-chloro-3-fluorophenyl)urea p-toluenesulfonate]
inhibition of whole blood neutrophil CD11b expression (oral dosing to Lewis rats at 10 mg/kg, blood drawn one hour later): active

From US20090170871A1, “IL-8 Receptor Antagonists” (SMITHKLINE BEECHAM CORPORATION, priority 2006, published 2009)
